In patent US20230286973A1, “PROTEIN SECRETION INHIBITORS” (KEZAR LIFE SCIENCES, priority 2020, published 2023):
Like-named read-outs stand apart in the source and are kept apart here.

Key:
[1] = Liver Microsome Stability Assay (mouse); conditions: mouse liver microsomes, with NADPH, 1.0 uM compound
Description: (§1) Stability of a compound was assessed in the presence of liver microsomes from various sources—mouse, rat, monkey and human liver microsomes. 1.0 uM compound, 0.4% DMSO in 0.1 M Potassium Phosphate with 1.0 mg/mL liver microsomes, were incubated at 37° C. with or without 1 mM NADPH. The samples were quenched at 0, and 30 minutes.

[2] = Liver Microsome Stability Assay (human); conditions: human liver microsomes, with NADPH, 1.0 uM compound
Description: as §1

[3] = tested on: IL-2-FL/Gaussia Luciferase; test: Dox Induced IL2-FL-Gluc Assay; assay type: cell-based; conditions: for IC50: 24 hr Dox induction, 293FRT/TO cells, read-out: 24 hr Dox Inducible IL2FLGluc 293FRT/TO: Mean IC50; for 24 hr Dox Inducible IL2FLGluc 293FRT/TO: IL2/PD1: ratio of IL2FLGluc IC50 to PD1ssGluc IC50
Outline: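 Doxycycline induces an IL-2(1-153)–Gaussia luciferase fusion in a stable Flp-In 293 T-REx line. Compound exposure runs alongside induction at 37° C.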

[4] = tested on: multiple myeloma cell line U266B1; test: U266 Cell Viability Assay; assay type: cell-based, human; conditions: Homo sapiens, U-266, 48 h, U266B1 cells, Celltiter-Glo
Outline: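 Viability is measured as luciferase signal from CellTiter-Glo following a 48-hour incubation with compound at 37° C. under 5% CO2. Where structures lack drawn stereochemistry, values refer to stereoisomer mixtures.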

[5] = tested on: HER3-ss+4aa/Gaussia Luciferase; test: Dox-Induced Her3-ss-Gluc Assay; assay type: cell-based; conditions: 24 hr Dox induction, 293FRT/TO cells, read-out: 24 hr Dox Inducible Her3(ss + 4)Gluc 293FRT/TO: Mean IC50
Outline: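 Reporter line: Flp-In 293 T-REx, T-REx-regulated HER3-ss+4aa fused to Gaussia luciferase. Compound co-added with doxycycline after overnight plating, 37° C., 5% CO2.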

[6] = tested on: PD1-ss+10aa/Gaussia Luciferase; test: Dox-Induced PD1-ss-Gluc Assay; assay type: cell-based; conditions: 24 hr Dox induction, 293FRT/TO cells, read-out: 24 hr Dox Inducible PD1ssGluc 293FRT/TO: Mean IC50
Outline: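 Flp-In 293 T-REx cells stably carrying a doxycycline-inducible Gaussia luciferase fused to the PD1 signal sequence plus 10 aa were plated the day before. Compound dilutions in DMSO/media containing doxycycline were then added and incubated at 37 °C, 5% CO2. Data for undefined stereochemistry refer to stereoisomer mixtures.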

[7] = Liver Microsome Stability Assay (rat); conditions: rat liver microsomes, with NADPH, 1.0 uM compound
Description: as §1

[8] = tested on: multiple myeloma cell line NCI-H929; test: H929 Cell Viability Assay; assay type: cell-based, human; conditions: Homo sapiens, NCI-H929, 48 h, NCI-H929 cells, Celltiter-Glo
Outline: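 Viability is scored by CellTiter-Glo luminescence following a 48-hour treatment at 37° C. Data for structures shown without stereochemistry refer to stereoisomer mixtures.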

[9] = Liver Microsome Stability Assay (monkey); conditions: monkey liver microsomes, with NADPH, 1.0 uM compound
Description: as §1

[10] = tested on: TNFα-FL/Gaussia Luciferase; test: Dox Induced TNFα-FL-Gluc Assay; assay type: cell-based; conditions: for IC50: 24 hr Dox induction, 293FRT/TO cells, read-out: 24 hr Dox Inducible TNFaFLGluc 293FRT/TO: Mean IC50; for 24 hr Dox Inducible TNFaFLGluc 293FRT/TO: TNF/PD1: ratio of TNFaFLGluc IC50 to PD1ssGluc IC50
Outline: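 Doxycycline-inducible Gaussia luciferase-tagged full-length TNFα (1-233) was expressed in stable Flp-In 293 T-REx cells. Compounds were co-added with doxycycline and incubated at 37 °C, 5% CO2.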

[11] = '<=>' given where both are I.A.

| SMILES | Liver Microsome Stability (Multiple Species): Mouse - % Remaining after 30 min w/NADPH [1] [%] | Liver Microsome Stability (Multiple Species): Human - % Remaining after 30 min w/NADPH [2] [%] | IC50 ([3]; mean) [µM] | EC50 [4] [µM] | IC50 ([5]; mean) [µM] | IC50 ([6]; mean) [nM] | Liver Microsome Stability (Multiple Species): Rat - % Remaining after 30 min w/NADPH [7] [%] | EC50 [8] [µM] | Liver Microsome Stability (Multiple Species): Monkey - % Remaining after 30 min w/NADPH [9] [%] | IC50 ([10]; mean) [µM] | IC50 [3] [µM] | IC50 [5] [µM] | IC50 [6] [nM] | IC50 [10] [µM] | 24 hr Dox Inducible IL2FLGluc 293FRT/TO: IL2/PD1 [3, 11] | 24 hr Dox Inducible TNFaFLGluc 293FRT/TO: TNF/PD1 [10, 11] | 24 hr Dox Inducible IL2FLGluc 293FRT/TO: IL2/PD1 [3] | 24 hr Dox Inducible TNFaFLGluc 293FRT/TO: TNF/PD1 [10] |
| --- | --- | --- | --- | --- | --- | --- | --- | --- | --- | --- | --- | --- | --- | --- | --- | --- | --- | --- |
| CCn1cnc(/C=C/c2csc(NC(=O)c3cccn3Cc3ccncc3)n2)c1 [Compound B69, (E)-N-(4-(2-(1-ethyl-1H-imidazol-4-yl)vinyl)thiazol-2-yl)-1-(pyridin-4-ylmethyl)-1H-pyrrole-2-carboxamide] | 0.32 | 0.01 |  | > 25 |  |  | 0.28 | > 25 | 0.04 |  | > 25 | > 25 | 119 | > 25 |  |  | >210 | >209 |
| CCc1cc(/C=C/c2csc(NC(=O)c3cccn3Cc3ccnc(F)c3)n2)no1 [Compound B89, (E)-N-(4-(2-(5-ethylisoxazol-3-yl)vinyl)thiazol-2-yl)-1-((2-fluoropyridin-4-yl)methyl)-1H-pyrrole-2-carboxamide] | 2.24 | 0.4 |  | > 25 |  |  | 1.11 | > 25 | 0.17 |  | 1.65 | 1.1 | 271 | > 25 |  |  | 6.1 | >92.2 |

Continued, in another order:

| Liver Microsome Stability (Multiple Species): Mouse - % Remaining after 30 min w/NADPH [1] [%] | Liver Microsome Stability (Multiple Species): Human - % Remaining after 30 min w/NADPH [2] [%] | IC50 ([3]; mean) [µM] | EC50 [4] [µM] | IC50 ([5]; mean) [µM] | IC50 ([6]; mean) [nM] | Liver Microsome Stability (Multiple Species): Rat - % Remaining after 30 min w/NADPH [7] [%] | EC50 [8] [µM] | Liver Microsome Stability (Multiple Species): Monkey - % Remaining after 30 min w/NADPH [9] [%] | IC50 ([10]; mean) [µM] | IC50 [3] [µM] | IC50 [5] [µM] | IC50 [6] [nM] | IC50 [10] [µM] | SMILES | 24 hr Dox Inducible IL2FLGluc 293FRT/TO: IL2/PD1 [3, 11] | 24 hr Dox Inducible TNFaFLGluc 293FRT/TO: TNF/PD1 [10, 11] | 24 hr Dox Inducible IL2FLGluc 293FRT/TO: IL2/PD1 [3] | 24 hr Dox Inducible TNFaFLGluc 293FRT/TO: TNF/PD1 [10] |
| --- | --- | --- | --- | --- | --- | --- | --- | --- | --- | --- | --- | --- | --- | --- | --- | --- | --- | --- |
| 0.33 | 0.57 | 22.1 | > 25 | 4.13 | 154 | 0.33 | 23.9 | 0.53 | > 25 |  |  |  |  | Cc1ccnc(/C=C/c2csc(NC(=O)c3cccn3Cc3ccncc3)n2)c1 [Compound E1, (E)-N-(4-(2-(4-methylpyridin-2-yl)vinyl)thiazol-2-yl)-1-(pyridin-4-ylmethyl)-1H-pyrrole-2-carboxamide] | 140 | >163 |  |  |
| 19 | 0.86 | 3.64 | > 25 | 3.92 | 775 | 4.69 | > 25 | 2.42 | 19.5 |  |  |  |  | O=C(Nc1nc(CC2CCCCO2)cs1)c1cccn1Cc1ccncc1 (stereo not drawn) [Compound E9, 1-(pyridin-4-ylmethyl)-N-(4-((tetrahydro-2H-pyran-2-yl)methyl)thiazol-2-yl)-1H-pyrrole-2-carboxamide] | 4.7 | 25.1 |  |  |
| 0.23 | 0.34 | 0.449 | 13.9 | 0.344 | 159 | 1.17 | 8.43 | 0.19 | 1.65 |  |  |  |  | COc1ccc(O[C@@H]2CCC[C@H](c3csc(NC(=O)c4cccn4Cc4ccncc4)n3)C2)nc1 [Compound E39, N-(4-((1S,3R)-3-((5-methoxypyridin-2-yl)oxy)cyclohexyl)thiazol-2-yl)-1-(pyridin-4-ylmethyl)-1H-pyrrole-2-carboxamide] | 2.8 | 10.3 |  |  |
